Results published in PubChem BioAssay AID256 (DTP/NCI, 2004).
Several values for one entry are separate records, joined by “and”; a condition that tells them apart may be missing. Equal entries are not always repeated. Inconclusive results and toxic doses are left out.

Test system: CD2F1 mice, L1210 leukemia ip, survival T/C
Assay: NCI In Vivo Anticancer Drug Screen. Data for tumor model L1210 Leukemia (intraperitoneal) in CD2F1 (CDF1) mice
Conditions: higher = longer survival
Outline: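 Tumor-bearing mice (transplanted tumor) were split into treated and vehicle control groups, and the measured endpoint of each treated group was divided by that of its vehicle controls.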

[1] = endpoint: mean survival time, dose: 100.0 mg/kg/injection, schedule: Q01DX009 (ip), vehicle: saline with Tween-80
[2] = endpoint: mean survival time, dose: 200.0 mg/kg/injection, schedule: Q01DX009 (ip), vehicle: saline with Tween-80
[3] = endpoint: mean survival time, dose: 400.0 mg/kg/injection, schedule: Q01DX009 (ip), vehicle: saline with Tween-80
[4] = endpoint: mean survival time, dose: 100.0 mg/kg/injection, schedule: Q01DX009 (ip), vehicle: saline
[5] = endpoint: mean survival time, dose: 200.0 mg/kg/injection, schedule: Q01DX009 (ip), vehicle: saline
[6] = endpoint: mean survival time, dose: 400.0 mg/kg/injection, schedule: Q01DX009 (ip), vehicle: saline
[7] = endpoint: mean survival time, dose: 100.0 mg/kg/injection, schedule: Q01DX001 (ip), vehicle: saline
[8] = endpoint: mean survival time, dose: 200.0 mg/kg/injection, schedule: Q01DX001 (ip), vehicle: saline
[9] = endpoint: mean survival time, dose: 400.0 mg/kg/injection, schedule: Q01DX001 (ip), vehicle: saline
[10] = endpoint: mean survival time, dose: 100.0 mg/kg/injection, schedule: Q04DX003 (ip), vehicle: saline
[11] = endpoint: mean survival time, dose: 200.0 mg/kg/injection, schedule: Q04DX003 (ip), vehicle: saline
[12] = endpoint: mean survival time, dose: 400.0 mg/kg/injection, schedule: Q04DX003 (ip), vehicle: saline
[13] = endpoint: mean survival time, dose: 100.0 mg/kg/injection, schedule: Q04DX002 (ip), vehicle: saline with Tween-80
[14] = endpoint: mean survival time, dose: 200.0 mg/kg/injection, schedule: Q04DX002 (ip), vehicle: saline with Tween-80
[15] = endpoint: mean survival time, dose: 400.0 mg/kg/injection, schedule: Q04DX002 (ip), vehicle: saline with Tween-80

In the case of CCOC(=O)N1C(=O)c2ccccc2C1=O, the T/C [1] is reported as 93 % of control, the T/C [2] is reported as 93 % of control and the T/C [3] is reported as 100 % of control.

For O=C(Nc1cccc([N+](=O)[O-])c1)c1cc2ccccc2cc1O, the T/C [4] was 101 % of control, the T/C (endpoint: mean survival time, dose: 100.0 mg/kg/injection, schedule: Q04DX003 (ip), vehicle: saline with Tween-80) was 95 % of control and the T/C [5] was 97 % of control. The T/C (endpoint: mean survival time, dose: 200.0 mg/kg/injection, schedule: Q04DX003 (ip), vehicle: saline with Tween-80) was 95 % of control, the T/C [6] was 98 % of control and the T/C (endpoint: mean survival time, dose: 400.0 mg/kg/injection, schedule: Q04DX003 (ip), vehicle: saline with Tween-80) was 87 % of control.

O=NN(CCCl)C(=O)NC1OC(CO)C(O)C(O)C1O (centres undefined) was tested, and the T/C (endpoint: mean survival time, dose: 2.5 mg/kg/injection, schedule: Q01DX009 (ip), vehicle: saline) was 215 % of control, the T/C (endpoint: mean survival time, dose: 5.0 mg/kg/injection, schedule: Q01DX009 (ip), vehicle: saline) was 176 % of control and the T/C (endpoint: mean survival time, dose: 10.0 mg/kg/injection, schedule: Q04DX002 (ip), vehicle: saline) was 243 % of control. The T/C (endpoint: mean survival time, dose: 20.0 mg/kg/injection, schedule: Q04DX002 (ip), vehicle: saline) was 121 % of control, the T/C (endpoint: median survival time, dose: 1.8 mg/kg/injection, schedule: Q01DX009 (ip), vehicle: saline) was 175 % of control and the T/C (endpoint: median survival time, dose: 3.0 mg/kg/injection, schedule: Q01DX009 (ip), vehicle: saline) was 175 % of control. The T/C (endpoint: median survival time, dose: 13.89 mg/kg/injection, schedule: Q01DX009 (ip), vehicle: saline) was 96 % of control.

In the case of CCOC(=O)NC(=O)O, the T/C [7] is reported as 114 % of control, the T/C [8] is reported as 103 % of control and the T/C [9] is reported as 97 % of control.

In the case of CCNC(C)(C)C(SSSC(c1ccc(Cl)cc1)C(C)(C)NCC)c1ccc(Cl)cc1 (centres undefined), the T/C [10] is reported as 109 % of control and the T/C [11] is reported as 86 % of control.

In the case of [Cl][Pt+2][Cl].[NH-]c1ccccc1F.[NH-]c1ccccc1F, the T/C (endpoint: mean survival time, dose: 15.63 mg/kg/injection, schedule: Q04DX003 (ip), vehicle: saline with Tween-80) is reported as 112 % of control, the T/C (endpoint: mean survival time, dose: 31.25 mg/kg/injection, schedule: Q04DX003 (ip), vehicle: saline with Tween-80) is reported as 108 % of control and the T/C (endpoint: mean survival time, dose: 62.5 mg/kg/injection, schedule: Q04DX003 (ip), vehicle: saline with Tween-80) is reported as 115 % of control. The T/C (endpoint: mean survival time, dose: 125.0 mg/kg/injection, schedule: Q04DX003 (ip), vehicle: saline with Tween-80) was 93 % of control.

For COC(=O)c1[nH]cnc1/N=N/N(C)C.[Cl][Cu][Cl], the T/C (endpoint: mean survival time, dose: 2.5 mg/kg/injection, schedule: Q01DX001 (ip), vehicle: saline) was 98 % of control, the T/C (endpoint: mean survival time, dose: 5.0 mg/kg/injection, schedule: Q01DX001 (ip), vehicle: saline) was 92 % of control and the T/C (endpoint: mean survival time, dose: 10.0 mg/kg/injection, schedule: Q01DX001 (ip), vehicle: saline) was 88 % of control and 96 % of control. The T/C (endpoint: mean survival time, dose: 20.0 mg/kg/injection, schedule: Q01DX001 (ip), vehicle: saline) was 111 % of control.

In the case of CN(C)c1ccc(/C=N/NC(=O)CC2CCCCC2)cc1, the T/C [1] is reported as 90 % of control, the T/C [2] is reported as 93 % of control and the T/C [3] is reported as 93 % of control.

Cc1cc2nc3c(=O)[nH]c(=O)nc-3n(CC(O)C(O)C(O)C(O)CO)c2cc1C (centres undefined) was tested, and the T/C (endpoint: mean survival time, dose: 25.0 mg/kg/injection, schedule: Q01DX009 (ip), vehicle: saline) was 101 % of control, the T/C (endpoint: mean survival time, dose: 25.0 mg/kg/injection, schedule: Q01DX009 (ip), vehicle: suspension in saline) was 96 % of control and the T/C (endpoint: mean survival time, dose: 50.0 mg/kg/injection, schedule: Q01DX009 (ip), vehicle: saline) was 93 % of control. The T/C (endpoint: mean survival time, dose: 50.0 mg/kg/injection, schedule: Q01DX009 (ip), vehicle: suspension in saline) was 104 % of control, the T/C [4] was 95 % of control and the T/C (endpoint: mean survival time, dose: 100.0 mg/kg/injection, schedule: Q01DX009 (ip), vehicle: suspension in saline) was 102 % of control. The T/C [5] was 98 % of control, the T/C (endpoint: mean survival time, dose: 200.0 mg/kg/injection, schedule: Q01DX009 (ip), vehicle: suspension in saline) was 98 % of control and the T/C [6] was 103 % of control. The T/C (endpoint: mean survival time, dose: 400.0 mg/kg/injection, schedule: Q01DX009 (ip), vehicle: suspension in saline) was 98 % of control and the T/C (endpoint: mean survival time, dose: 800.0 mg/kg/injection, schedule: Q01DX009 (ip), vehicle: saline) was 95 % of control.

CC(=O)Oc1c(Br)cc(Br)cc1-c1ccccc1 was tested, and the T/C [7] was 95 % of control, the T/C [10] was 117 % of control and the T/C [8] was 94 % of control. The T/C [11] was 105 % of control, the T/C [9] was 101 % of control and the T/C [12] was 114 % of control.

O=C(O)c1ccc(CCCBr)cc1 was tested, and the T/C (endpoint: mean survival time, dose: 100.0 mg/kg/injection, schedule: Q04DX003 (ip), vehicle: other) was 107 % of control, the T/C (endpoint: mean survival time, dose: 200.0 mg/kg/injection, schedule: Q04DX003 (ip), vehicle: other) was 106 % of control and the T/C (endpoint: mean survival time, dose: 400.0 mg/kg/injection, schedule: Q04DX003 (ip), vehicle: other) was 101 % of control.

In the case of COC(=O)C12CCC1(Cl)CC2 (centres undefined), the T/C [10] is reported as 98 % of control, the T/C [11] is reported as 93 % of control and the T/C [12] is reported as 96 % of control.

In the case of [O-][n+]1ccnc2c1cnn2C1OC(CO)C(O)C1O (centres undefined), the T/C (endpoint: mean survival time, dose: 12.5 mg/kg/injection, schedule: Q04DX003 (ip), vehicle: water) is reported as 104 % of control, the T/C (endpoint: mean survival time, dose: 25.0 mg/kg/injection, schedule: Q04DX003 (ip), vehicle: water) is reported as 104 % of control and the T/C (endpoint: mean survival time, dose: 50.0 mg/kg/injection, schedule: Q04DX003 (ip), vehicle: water) is reported as 101 % of control. The T/C (endpoint: mean survival time, dose: 100.0 mg/kg/injection, schedule: Q04DX003 (ip), vehicle: water) was 101 % of control and the T/C (endpoint: mean survival time, dose: 200.0 mg/kg/injection, schedule: Q04DX003 (ip), vehicle: water) was 101 % of control.

COc1ccc(COC(=O)Oc2ccccc2)cc1OC was tested, and the T/C [13] was 93 % of control, the T/C [14] was 101 % of control and the T/C [15] was 96 % of control.

With CCOc1ccc(Br)cc1/C=C(\C#N)c1ccc([N+](=O)[O-])cc1 the T/C (endpoint: mean survival time, dose: 0.1 mg/kg/injection, schedule: Q01DX009 (ip), vehicle: saline with Tween-80) was 98 % of control, the T/C (endpoint: mean survival time, dose: 0.2 mg/kg/injection, schedule: Q01DX009 (ip), vehicle: saline with Tween-80) was 97 % of control and the T/C (endpoint: mean survival time, dose: 0.39 mg/kg/injection, schedule: Q01DX009 (ip), vehicle: saline with Tween-80) was 93 % of control. The T/C (endpoint: mean survival time, dose: 0.4 mg/kg/injection, schedule: Q01DX009 (ip), vehicle: saline with Tween-80) was 90 % of control, the T/C (endpoint: mean survival time, dose: 12.5 mg/kg/injection, schedule: Q04DX003 (ip), vehicle: saline with Tween-80) was 87 % of control and the T/C (endpoint: mean survival time, dose: 25.0 mg/kg/injection, schedule: Q04DX003 (ip), vehicle: saline with Tween-80) was 89 % of control. The T/C (endpoint: mean survival time, dose: 50.0 mg/kg/injection, schedule: Q04DX003 (ip), vehicle: saline with Tween-80) was 86 % of control.

COc1ccc(COC(=O)Nc2ccc([N+](=O)[O-])cc2)cc1 was tested, and the T/C [13] was 96 % of control, the T/C [14] was 96 % of control and the T/C [15] was 96 % of control.

With Cc1cc(Cc2c(C)c(C)c(Cc3cc(C)cc(C(C)(C)C)c3O)c(C)c2C)c(O)c(C(C)(C)C)c1 the T/C (endpoint: mean survival time, dose: 100.0 mg/kg/injection, schedule: Q04DX003 (ip), vehicle: saline sonified) was 90 % of control, the T/C (endpoint: mean survival time, dose: 200.0 mg/kg/injection, schedule: Q04DX003 (ip), vehicle: saline sonified) was 88 % of control and the T/C (endpoint: mean survival time, dose: 400.0 mg/kg/injection, schedule: Q04DX003 (ip), vehicle: saline sonified) was 93 % of control.

For CCCC(C(CC)CN(C)C)N(C)C (centres undefined), the T/C (endpoint: mean survival time, dose: 3.12 mg/kg/injection, schedule: Q04DX002 (ip), vehicle: saline with Tween-80) was 113 % of control, the T/C (endpoint: mean survival time, dose: 6.25 mg/kg/injection, schedule: Q04DX002 (ip), vehicle: saline with Tween-80) was 106 % of control and the T/C (endpoint: mean survival time, dose: 12.5 mg/kg/injection, schedule: Q04DX002 (ip), vehicle: saline with Tween-80) was 107 % of control. For the same compound, the T/C (endpoint: mean survival time, dose: 25.0 mg/kg/injection, schedule: Q01DX001 (ip), vehicle: saline with Tween-80) was 120 % of control, the T/C (endpoint: mean survival time, dose: 25.0 mg/kg/injection, schedule: Q04DX002 (ip), vehicle: saline with Tween-80) was 103 % of control and the T/C (endpoint: mean survival time, dose: 50.0 mg/kg/injection, schedule: Q01DX001 (ip), vehicle: saline with Tween-80) was 100 % of control. For the same compound, the T/C (endpoint: mean survival time, dose: 100.0 mg/kg/injection, schedule: Q01DX001 (ip), vehicle: saline with Tween-80) was 100 % of control.

With O=c1[nH]cc([N+](=O)[O-])c(=O)[nH]1 the T/C [13] was 97 % of control, the T/C [14] was 97 % of control and the T/C [15] was 101 % of control.

With O=C1C(=O)c2ccccc2C(O)=C1C(C1=C(O)c2ccccc2C(=O)C1=O)c1ccc(C(C2=C(O)c3ccccc3C(=O)C2=O)C2=C(O)c3ccccc3C(=O)C2=O)cc1 the T/C (endpoint: mean survival time, dose: 100.0 mg/kg/injection, schedule: Q01DX009 (ip), vehicle: saline sonified) was 96 % of control, the T/C (endpoint: mean survival time, dose: 200.0 mg/kg/injection, schedule: Q01DX009 (ip), vehicle: saline sonified) was 97 % of control and the T/C (endpoint: mean survival time, dose: 400.0 mg/kg/injection, schedule: Q01DX009 (ip), vehicle: saline sonified) was 108 % of control.
